Measured values from patent US20260318831A1 (University of Cincinnati, priority 2023, published 2026).

Assays:
Format in all cases: cell-based
[1] = system: endolysosomes in HeLa cells; experiment: Dynamics of PyQPMe-stained endolysosomes during autophagy
Experimental: FIGS. 6A-6H depict the dynamics of PyQPMe-stained endolysosomes during autophagy. FIG. 6A. Confocal images of HeLa cells incubated with PyQPMe following treatment with or without CCCP for 24 h. FIG. 6B. Quantification of total endolysosomes and late endosomes/lysosomes in PyQPMe-stained HeLa cells with or without CCCP treatment. FIG. 6C. The ratio of the number of late endosomes/lysosomes to total endolysosomes in PyQPMe-stained HeLa cells treated with or without CCCP. FIG. 6D. Quantification of ratio of red to green intensity in PyQPMe-stained HeLa cells without CCCP treatment. FIG. 6E. Quantification of ratio of red to green intensity in PyQPMe-stained HeLa cells with CCCP treatment for 24 h. FIG. 6F. Confocal images of HeLa cells incubated with PyQPMe following treatment with or without rapamycin for 24 h. FIG. 6G. Quantification of total endolysosomes and late endosomes/lysosomes in PyQPMe-stained HeLa cells with or without rapamycin treatment. FIG. 6H. The ratio of the number of late endosomes/lysosomes to total endolysosomes in PyQPMe-stained HeLa cells treated with or without rapamycin. Data are given as M±SEM (n=10 independent samples from 10 cells for each statistical analysis); the statistical differences were analyzed by Student's t-test, p<0.05 is considered to statistical significant (**** p≤0.0001; ns p>0.05).
Autophagy is a natural degradation process of cells that removes unnecessary or damaged biological macromolecules or organelles to maintain homeostasis. After autophagosomes engulf unnecessary components, both late endosomes and lysosomes can fuse with autophagosomes to degrade autophagosomal cargo by forming amphisomes and autolysosomes, respectively. To study the behavior of endolysosomes during autophagy, carbonyl [COMPOUND LEFT OUT] m-chlorophenyl hydrazone (CCCP), a common inducer for mitophagy (one type of autophagy), was exploited to induce autophagy in PyQPMe-stained cells. Cells were treated with 10 μM CCCP for 24 h prior to PyQPMe staining. […] As mentioned above (FIG. 2C), pH 5-6 is the cut-off point for the red to green fluorescence intensity ratio of PyQPMe, which perfectly matches the pH changes during conversion from early endosomes to late endosomes. […] Inversely, when the ratio is greater than 1, it represents the population of late endosomes/lysosomes (FIGS. 3D, 6D, 6E).
Rapamycin, a classical autophagy inducer, activates autophagy by inhibiting mTOR protein activation. To investigate the effect of rapamycin on endolysosomes, we treated HeLa cells with 0.5 μM rapamycin for 24 h prior to PyQPMe staining. […] To track the dynamics of endolysosomes in classical autophagy, the total endolysosomes and late endosomes/lysosomes in rapamycin-treated cells were quantified. […] Meanwhile, similar to the CCCP-induced mitophagy (FIGS. 6A, 6C), the proportion of late endosomes/lysosomes to total endolysosomes remained the same (~54%) during classical autophagy process (FIG. 6H).
(§1) Leica Stellaris 8 Confocal imaging. High-resolution images were acquired on a commercial Leica Stellaris 8 Confocal Microscope under LIGHTNING mode. Laser powers were set at 10% intensity for 405 nm and 640 nm channels. The objective was 63×/1.4. High-resolution images were captured from the randomly selected field of view and analyzed with Leica LAS X and ImageJ software. All the images were exported on the Auto scale of the Leica LAS X software. Cells were seeded on glassed-bottomed cell dishes (MatTek) for 24 hours. Cells stained with PyQPMe (20 nM, 10 min) were treated with Wortmannin (1 μM, 24 h), CCCP ([…], 24 h), rapamycin (0.5 μM, 24 h), chloroquine (25 μM, 30 min), and NH4Cl (50 mM, 30 min). All PCC values were analyzed in the CellProfiler.

HeLa cells [2] = experiment: Photobleaching comparison of LTR and PyQPMe; conditions: continuous confocal laser at 100% power
Text: FIGS. 4A-4G depict the characterization of imaging properties of PyQPMe-stained endolysosomes. FIG. 4A. Confocal image of PyQPMe-stained endolysosomes and fluorescence intensity profile (FIG. 4B) of the write line in FIG. 4A. FIG. 4C. Confocal image of PyQPMe-stained late endosomes/lysosomes and fluorescence intensity profile (FIG. 4D) of the write line in FIG. 4C. FIG. 4E. Confocal images of HeLa cells labeled with LTR and PyQPMe and 3D fluorescence intensity plots of rectangles of integration. FIG. 4F. Continuous imaging of HeLa cells labeled with LTR or PyQPMe at 100% laser intensity for photobleaching, and each scan time was 10 s, images were captured under a red channel. FIG. 4G. Normalized fluorescence intensity of LTR and PyQPMe in FIG. 4F.
Resistance to photobleaching is a crucial property of probes that determines whether they can be used for long-term fluorescence tracking. To characterize this property, a photobleaching comparison study between LTR and PyQPMe was done in HeLa cells (FIG. 4F).
Leica Stellaris 8 Confocal imaging. High-resolution images were acquired on a commercial Leica Stellaris 8 Confocal Microscope under LIGHTNING mode. Laser powers were set at 10% intensity for 405 nm and 640 nm channels. […] High-resolution images were captured from the randomly selected field of view and analyzed with Leica LAS X and ImageJ software. […] All PCC values were analyzed in the CellProfiler.

HeLa cells [3] = experiment: Confocal imaging of PyQPMe uptake by endocytosis; conditions: chloroquine 25 μM, 30 min; NH4Cl 50 mM
Experimental: In some aspects, the probes of the present disclosure can be administered to living cells, either in vitro or in vivo. To take advantage of the absorption and emission spectra of PyQPMe, this probe was administered in high-resolution microscopy for living cells. The toxicity of PyQPMe was examined at first before characterizing its imaging properties. Cell Counting Kit-8 (CCK-8) was used to investigate the viability of HeLa cells stained with PyQPMe. […] Next, PyQPMe was characterized by Leica Stellaris Confocal Microscope in the LIGHTNING module for high-resolution imaging. […] The signal tended to be endolysosomes because endolysosomes have a low pH range from 4.7 to 6.3. […] Since low temperatures can inhibit endocytosis, experiments at a lower temperature were performed.
as §1

[4] = system: endolysosomes in HeLa cells; experiment: Dynamics of PyQPMe-stained endolysosomes (puncta counting); conditions: wortmannin 1 μM, 24 h
Experimental: FIGS. 5A-5H depict the characterization of dynamics of PyQPMe-stained endolysosomes. FIG. 5A. Confocal images of HeLa cells stained with PyQPMe following treatment with or without Wortmannin for 24 h. FIG. 5B. Schematic illustration of the effect of Wortmannin which inhibits the conversion from early endosomes into late endosomes. FIG. 5C. Quantification of total endolysosomes and late endosomes/lysosomes in PyQPMe-stained HeLa cells with or without Wortmannin treatment. FIG. 5D. The ratio of the number of late endosomes/lysosomes to total endolysosomes in PyQPMe-stained HeLa cells treated with or without Wortmannin. FIG. 5E. Confocal images of HeLa cells stained with PyQPMe for 10 min and 60 min. FIG. 5F. The mean red puncta fluorescence intensity of PyQPMe-stained HeLa cells for 10 min and 60 min incubation. FIG. 5G. Quantification of total endolysosomes and late endosomes/lysosomes in PyQPMe-stained HeLa cells for 10 min and 60 min. FIG. 5H. The ratio of the number of late endosomes/lysosomes to total endolysosomes in PyQPMe-stained HeLa cells for 10 min and 60 min. Data are given as M±SEM (n=10 independent samples from 10 cells for each statistical analysis); the statistical differences were analyzed by Student's t-test, p<0.05 is considered to statistical significant (** p≤0.01; *** p≤0.001; **** p≤0.0001; ns p>0.05).
Because of the popularity of quantitative cell biology, it is important to design powerful tools that can digitize individual cells and subcellular organelles to elucidate biological problems in detail. With its great pH response, long-term photostability, and excellent signal-to-noise ratio for high-resolution imaging, PyQPMe was successfully used to track the dynamics of endolysosomes within cells by counting the number of puncta fluorescence signals in both green and red channels (FIG. 5A).
Next, the effects of different incubation time on the endocytic pathway were tested.
as §1

SMILES: N#CC(C#N)=NNc1cccc(Cl)c1 [CCCP]
- number of total endolysosomes and late endosomes/lysosomes vs controls ([1]; CCCP 10 μM, 24 h (mitophagy)): significant increase
- ratio of late endosomes/lysosomes to total endolysosomes ([1]; CCCP 10 μM, 24 h, by counting (FIG. 6C)): ~ 55%
- ratio of late endosomes/lysosomes to total endolysosomes from red to green intensity ([1]; CCCP 24 h (FIG. 6E), 52% without CCCP (FIG. 6D)): 56%
- acidity of early and late endosomes ([1]; CCCP, distribution of red to green intensity ratio): both early and late endosomes became more acidic

SMILES: CN(C)CCNC(=O)CCc1ccc2n1[B-](F)(F)[N+]1=C(c3ccc[nH]3)C=CC1=C2 [LTR, reference compound]
- fluorescence intensity on photobleaching (HeLa cells [2]): disappeared rapidly after two scans

SMILES: Cl.N [NH4Cl, reference compound]
- effect of endocytic inhibitor on PyQPMe fluorescence (HeLa cells [3]): significant reduction in fluorescence

SMILES: CCN(CC)CCCC(C)Nc1ccnc2cc(Cl)ccc12 (stereo not drawn) [chloroquine, reference compound]
- effect of endocytic inhibitor on PyQPMe fluorescence (HeLa cells [3]): significant reduction in fluorescence

SMILES: CO[C@H]1C[C@@H]2CC[C@@H](C)[C@@](O)(O2)C(=O)C(=O)N2CCCC[C@H]2C(=O)O[C@H]([C@H](C)C[C@@H]2CC[C@@H](O)[C@H](OC)C2)CC(=O)[C@H](C)/C=C(\C)[C@@H](O)[C@@H](OC)C(=O)[C@H](C)C[C@H](C)/C=C/C=C/C=C/1C [rapamycin]
- fluorescent spots in both green and red channels ([1]; rapamycin 0.5 μM, 24 h): more fluorescent spots
- number of total endolysosomes and late endosomes/lysosomes ([1]; rapamycin 0.5 μM, 24 h): significantly increased
- proportion of late endosomes/lysosomes to total endolysosomes ([1]; rapamycin 0.5 μM, 24 h (FIG. 6H)): ~ 54%

SMILES: COC[C@H]1OC(=O)c2coc3c2[C@@]1(C)C1=C(C3=O)[C@@H]2CCC(=O)[C@@]2(C)C[C@H]1OC(C)=O [wortmannin, reference compound]
- number of endolysosomes vs untreated cells [4]: much higher than that in untreated cells
- percentage of late endosomes/lysosomes in total endolysosomes vs untreated [4]: significantly decreased
